# Like-named read-outs stand apart in the source and are kept apart here.
# Experiments:
# Type in all cases: cell-based
# [1] = tested on: E. coli MP-9 ΔTolC; assay: MIC against E. coli MP-9 ΔTolC
# [2] = tested on: S. pyogenes ATCC 19615; assay: MIC against S. pyogenes ATCC 19615
# [3] = tested on: E. coli MP-74 LptD mutant; assay: MIC against E. coli MP-74 LptD mutant
# [4] = tested on: E. coli ATCC 25922; assay: MIC against E. coli ATCC 25922
# [5] = tested on: S. aureus MP-549 msr(a) USA 300; assay: MIC against S. aureus MP-549 msr(a) USA 300; details: S. aureus MP-549 msr(a) USA 300
# [6] = tested on: S. aureus ATCC 29213; assay: MIC against S. aureus ATCC 29213
# [7] = tested on: H. influenzae ATCC 49247; assay: MIC against H. influenzae ATCC 49247
# [8] = tested on: E. faecalis ATCC 29212; assay: MIC against E. faecalis ATCC 29212
# [9] = tested on: K. pneumoniae ATCC 10031; assay: MIC against K. pneumoniae ATCC 10031
# [10] = tested on: S. pneumoniae ATCC 49619; assay: MIC against S. pneumoniae ATCC 49619
# [11] = Escherichia coli, ATCC25922, read-out: MIC
# [12] = Haemophilus influenzae, ATCC49247, H. influenzae ATCC 49247, read-out: MIC
# [13] = Enterococcus faecalis, ATCC29212, E. faecalis ATCC 29212, read-out: MIC
# [14] = Klebsiella pneumoniae, ATCC10031, read-out: MIC
# [15] = Streptococcus pyogenes, ATCC19615, S. pyogenes ATCC 19615, read-out: MIC
# [16] = Staphylococcus aureus, ATCC29213, S. aureus ATCC 29213, read-out: MIC
# [17] = Streptococcus pneumoniae, ATCC49619, S. pneumoniae ATCC 49619, read-out: MIC
SMILES,"MIC [4, 11] [µg/mL]","MIC [8, 13] [µg/mL]","MIC [2, 15] [µg/mL]","MIC [6, 16] [µg/mL]","MIC [10, 17] [µg/mL]",MIC ([1]; Escherichia coli) [µg/mL],MIC ([2]; S. pyogenes ATCC 19615) [µg/mL],MIC [3] [µg/mL],MIC [5] [µg/mL],MIC ([6]; S. aureus ATCC 29213) [µg/mL],"MIC [7, 12] [µg/mL]","MIC [9, 14] [µg/mL]",MIC ([10]; S. pneumoniae ATCC 49619) [µg/mL],MIC [1] [µg/mL],MIC [4] [µg/mL],MIC ([7]; H. influenzae ATCC 49247) [µg/mL],MIC ([8]; E. faecalis ATCC 29212) [µg/mL],MIC [9] [µg/mL],MIC ([3]; Escherichia coli) [µg/mL]
"CCC[C@@H]1C[C@@H](C(=O)N[C@@H]([C@H]2OC(SC)[C@H](O)C(O)C2O)C(C)(C)C(C)N=[N+]=[N-])N(C)C1 (single isomer, unassigned) [FSA-217021a]",> 64,> 64,,,,> 64,2,>64,4,4,> 64,> 64,2,,,,,,
"CCC[C@@H]1C[C@@H](C(=O)N[C@@H]([C@H]2OC(SC)[C@H](O)C(O)C2O)C(C)(C)C(C)N=[N+]=[N-])N(C)C1 (single isomer, unassigned) [FSA-217021b]",,,,,,,0.12,8,0.25,0.25,,,0.12,32,>64,32,64,>64,
"CCC[C@@H]1C[C@@H](C(=O)N[C@H]([C@@H]2CCC(O)C2O)[C@H]2OC(SC)[C@H](O)C(O)C2O)N(C)C1 (single isomer, unassigned) [FSA-217039a]",> 64,> 64,,,,> 64,8,,>64,>64,> 64,> 64,8,,,,,,> 64
"CCC[C@@H]1C[C@@H](C(=O)N[C@H]([C@@H]2CCC(O)C2O)[C@H]2OC(SC)[C@H](O)C(O)C2O)N(C)C1 (single isomer, unassigned) [FSA-217039b]",,,,,,,0.5,>64,8,4,,,1,>64,>64,>64,>64,>64,

# Further lines, with some results ahead:
"MIC [4, 11] [µg/mL]","MIC [8, 13] [µg/mL]","MIC [2, 15] [µg/mL]","MIC [6, 16] [µg/mL]","MIC [10, 17] [µg/mL]",SMILES,MIC ([1]; Escherichia coli) [µg/mL],MIC ([2]; S. pyogenes ATCC 19615) [µg/mL],MIC [3] [µg/mL],MIC [5] [µg/mL],MIC ([6]; S. aureus ATCC 29213) [µg/mL],"MIC [7, 12] [µg/mL]","MIC [9, 14] [µg/mL]",MIC ([10]; S. pneumoniae ATCC 49619) [µg/mL],MIC [1] [µg/mL],MIC [4] [µg/mL],MIC ([7]; H. influenzae ATCC 49247) [µg/mL],MIC ([8]; E. faecalis ATCC 29212) [µg/mL],MIC [9] [µg/mL],MIC ([3]; Escherichia coli) [µg/mL]
> 64,64,8,32,4,"CCC[C@@H]1C[C@@H](C(=O)N[C@H](CO)[C@H]2OC(SC)[C@H](O)C(O)C2O)N(C)C1 (stereo partly shown) [FSA-214043, 8-norlincomycin]",,,,,,,,,,,,,,
> 64,> 64,> 64,> 64,> 64,CCC[C@@H]1C[C@@H](C(=O)N[C@H](CNc2ccc(-c3cncnc3)cc2)[C@H]2OC(SC)[C@H](O)C(O)C2O)N(C)C1 (stereo partly shown) [FSA-214080],,,,,,,,,,,,,,
> 64,> 64,> 64,> 64,> 64,CCC[C@@H]1C[C@@H](C(=O)N[C@H](CNC2CC2)[C@H]2OC(SC)[C@H](O)[C@H](O)C2O)N(C)C1 (stereo partly shown) [FSA-214082b],,,,,,,,,,,,,,
> 64,> 64,> 64,> 64,> 64,CCC[C@@H]1C[C@@H](C(=O)N[C@H](CNCc2ccc(F)cc2)[C@H]2OC(SC)[C@H](O)C(O)C2O)N(C)C1 (stereo partly shown) [FSA-214084],,,,,,,,,,,,,,
> 64,> 64,> 64,> 64,> 64,CCC[C@@H]1C[C@@H](C(=O)N[C@H](CNc2ccccc2)[C@H]2OC(SC)[C@H](O)C(O)C2O)N(C)C1 (stereo partly shown) [FSA-214088],,,,,,,,,,,,,,
> 64,> 64,32,64,16,CCC[C@@H]1C[C@@H](C(=O)N[C@H](CNCC(F)(F)F)[C@H]2OC(SC)[C@H](O)C(O)C2O)N(C)C1 (stereo partly shown) [FSA-214099],,,,,,,,,,,,,,

# Reference: patent US11566039B2, “Lincosamide antibiotics and uses thereof” (President and Fellows of Harvard College, priority 2017, dated 2023)
